Reference: PMC4862498, “PI4 Kinase Is a Prophylactic but Not Radical Curative Target in Plasmodium vivax-Type Malaria Parasites” (Antimicrobial Agents and Chemotherapy, 2016)
Entries after “also recorded” stand apart in the source; their conditions may differ.

Columns and labels:
[1] = tested on: P. cynomolgi sporozoite-infected rhesus macaques; experiment: Causal prophylaxis in P. cynomolgi sporozoite-infected rhesus macaques; assay type: in vivo, Plasmodium cynomolgi; conditions: 20 mg/kg oral for 5 days from day 0, 4 monkeys, follow-up until day 102 p.i.
Experimental: Sporozoites were harvested from P. cynomolgi-infected mosquitoes, washed with phosphate-buffered saline (PBS), and diluted to 100,000 sporozoites (spz)/ml in PBS. One-milliliter aliquots of sporozoites were prepared and injected into monkeys via intravenous (i.v.) injection.
Monkeys were treated according to the schedule shown in Table 1 (stratification of treatment groups is given in the supplemental material). During treatment, monkeys were weighed daily and received the compound via gavage, followed by gastric feeding (weight change during treatment is shown in Table S6 in the supplemental material). […]
Parasitemia was closely monitored by thin-film analysis. […] Thin-film slides were stained with 20% Giemsa stain, and at least 50 fields (±20,000 erythrocytes [RBCs]) were analyzed with a bright-field microscope (×1,200 magnification). […] From day 23 p.i., monkeys were monitored daily for relapses. The KDU691 radical-cure (group 691-RC) treatment and control groups were monitored until the first relapse. The LMV599 control (group 599-C), radical-cure (group 599-RC), and PQ radical-cure (group PQ-RC) treatment groups were monitored until the second relapse or until day 100 p.i. […]
The prophylaxis groups were monitored daily until day 22 p.i. From day 22 to day 45 p.i., they were monitored three times a week, and from day 45 to day 105 p.i. (100 days after treatment), they were monitored twice a week. […]

[2] = parameters: species or system rhesus macaques (Macaca mulatta); conditions: rhesus monkey, in vivo, po, 20 mg/kg
Description: Blood samples were collected for clinical evaluation and pharmacokinetic (PK) analysis (see Table S2 in the supplemental material).
Details of in vivo PK studies of KDU691 and LMV599 in CD-1 mice and monkeys can be found in the supplemental material.
P. cynomolgi sporozoite production
A monkey was infected with […] P. cynomolgi M strain blood stage parasites, thawed from a first passage stock (i.e. blood stage parasites from a monkey infected with P. cynomolgi M strain sporozoites). For each batch of sporozoites needed, a single monkey was infected with P. cynomolgi blood stage parasites.
At day 11 and 12 post infection 9 mL infected blood was collected into a Lithium-heparinised tube. The blood was kept at 38°C and fed approximately 500 three to five days old female Anopheles stephensi mosquitoes Sind-Kasur strain Nijmegen (Nijmegen University Medical Centre St Radboud, Department of Medical Microbiology) using a glass feeder system as described by Ponnudurai et al.. After the second bleed, the monkey was cured by three daily intramuscular injections of 7.5 mg/kg chloroquine, monitored for parasite clearance 24 days after chloroquine treatment and returned to colony.
Mosquitoes were kept in climate chambers at 25 °C and 80% humidity and were fed 5% D -glucose on cotton pads daily. Seven days after feeding on the infected rhesus blood, oocyst numbers were determined in midguts of ten individuals, using 1% mercurochrome stain. Mosquitoes were given a second (uninfected) blood meal immediately afterwards to promote sporozoite maturation and invasion of the salivary glands. Sporozoites were isolated from the P. cynomolgi infected mosquitoes around day16 after the infected blood meal.
In vivo monkey infection and treatment procedures
Sporozoites were isolated from the P. cynomolgi infected mosquitoes around day16 after the infected blood meal. For this, mosquitoes were collected in a beaker and killed with 70% ethanol. After four washes in Leibovitz’ L15 medium containing 3% FCS and 2% pen/strep, salivary glands were dissected.
Salivary glands were kept on ice at all times, sporozoites were liberated by pottering. The sporozoites were washed with PBS, counted in a Burker-Turk chamber, and diluted to 100,000 spz/mL in PBS.
Aliquots of 1 mL were prepared and injected into monkeys via intravenous (i.v.) injection. […]
group (691-RC-high) and a control group (691-C)
KDU691 was formulated as a micro suspension in 0.5% Methylcellulose/0.5% Tween 80 in water, maximum one hour before dosing. The amount of KDU691 sufficient to treat all animals of one group was weighed, a microsuspension of 10 mg/mL in methylcellulose/tween was made and sonicated (Soniprep 150, Sanyo) with an amplitude of 12-15 µm for 15 min. The dose for each monkey was transferred to a 50 mL tube, which was vortexed extensively just before administration.
To collect samples for KDU691 PK analysis in monkeys, approximately 100 µL blood was taken from the calf vein for each time point and immediately spotted onto DBS filters (PKI Bioanalysis cards, Perkin Elmer). […]
The monkeys of the LMV599/PQ experiment were cured with a five day CQ treatment (7.5 mg/kg, i.m. administration) at the first relapse and were monitored until the second relapse after which they were cured with CQ (7.5 mg/kg, intramuscular (i.m.) for five days) plus PQ (1.8 mg/kg for 14 days). […]

CNC(=O)c1ccc(-c2cnc3cnc(C(=O)N(C)c4ccc(Cl)cc4)cn23)cc1 [KDU691]
causal prophylactic outcome (blood-stage parasitemia) [1]: fully protective; also recorded: completely effective; also recorded: eradicated all liver-stage parasites, including hypnozoites | % fT > TRE [2]: 16.7% | AUC [2]: 38.82 µM·h | Cmax [2]: 4.31 µM | fAUC/TRE [2]: 13.08 | fCmax/TRE [2]: 1.45
